Data as given in US20230322761A1, “DEGRADATION OF BRUTON'S TYROSINE KINASE (BTK) BY CONJUGATION OF BTK INHIBITORS WITH E3 LIGASE LIGAND AND METHODS OF USE” (BEIGENE, LTD., priority 2020, published 2023).

biological target: T1, BTK (Homo sapiens, UniProt Q06187); assay: BTK degradation in TMD-8 cells, HTRF assay after 6 h treatment; type: cell-based; conditions: IC50 (DC50) of BTK degradation
T1 construct: endogenous in cells; host or cells: TMD-8 cells
In short: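 Remaining BTK was quantified by HTRF in lysates of TMD-8 cells after 6 h exposure to an 8-point, 6-fold compound series (500× stocks in DMSO starting at 1 mM; 0.2% DMSO). Lysis 30 min, antibodies overnight at room temperature, ratio read at 665/620 nm; DC50 fitted with a four-parameter logistic equation.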

T1 sequence (Q06187 whole entry): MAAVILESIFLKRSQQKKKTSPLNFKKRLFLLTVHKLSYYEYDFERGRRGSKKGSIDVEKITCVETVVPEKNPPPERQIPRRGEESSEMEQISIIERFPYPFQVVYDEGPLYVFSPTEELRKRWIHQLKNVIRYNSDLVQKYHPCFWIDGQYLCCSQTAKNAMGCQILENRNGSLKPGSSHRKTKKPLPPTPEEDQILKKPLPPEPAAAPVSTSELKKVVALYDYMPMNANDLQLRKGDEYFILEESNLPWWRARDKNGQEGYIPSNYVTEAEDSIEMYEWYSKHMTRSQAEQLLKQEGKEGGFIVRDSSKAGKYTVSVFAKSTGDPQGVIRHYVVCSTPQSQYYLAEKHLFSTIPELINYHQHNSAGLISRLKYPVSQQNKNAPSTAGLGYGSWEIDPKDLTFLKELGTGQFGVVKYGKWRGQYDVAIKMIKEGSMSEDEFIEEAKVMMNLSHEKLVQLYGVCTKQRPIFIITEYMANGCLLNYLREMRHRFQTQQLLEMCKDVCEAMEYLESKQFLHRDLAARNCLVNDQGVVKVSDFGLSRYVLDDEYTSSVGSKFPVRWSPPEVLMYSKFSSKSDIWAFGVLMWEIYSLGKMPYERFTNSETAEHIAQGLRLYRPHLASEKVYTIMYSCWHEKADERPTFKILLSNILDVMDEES

Row | Compound | DC50
1 | COc1cc(N2CCC(CN3CCN(c4ccc(-c5cnc6[nH]nc(-c7ccc(CNC(=O)c8noc(C(C)(C)C)n8)c(C)c7)c6c5)cc4)CC3)CC2)ccc1N1CCC(=O)NC1=O [Example 50, 5-(tert-butyl)-N-(4-(5-(4-(4-((1-(4-(2,4-dioxotetrahydropyrimidin-1(2H)-yl)-3-methoxyphenyl)piperidin-4-yl)methyl)piperazin-1-yl)phenyl)-1H-pyrazolo[3,4-b]pyridin-3-yl)-2-methylbenzyl)-1,2,4-oxadiazole-3-carboxamide] | 4.65 nM
2 | Cc1cc(-c2n[nH]c3ncc(-c4ccc(N5CCN(CC6CCN(c7ccc(N8CCC(=O)NC8=O)cc7)CC6)CC5)cc4)cc23)ccc1CNC(=O)c1csc(C(C)(C)C)n1 [Example 93, 2-(tert-butyl)-N-(4-(5-(4-(4-((1-(4-(2,4-dioxotetrahydropyrimidin-1(2H)-yl)phenyl)piperidin-4-yl)methyl)piperazin-1-yl)phenyl)-1H-pyrazolo[3,4-b]pyridin-3-yl)-2-methylbenzyl)thiazole-4-carboxamide] | 28.8 nM
3 | Cc1cc(-c2n[nH]c3ncc(-c4ccc(C5CCN(CCc6ccc([C@@H]7CCC(=O)NC7=O)cc6)CC5)nc4)cc23)ccc1[C@@H](C)NC(=O)c1noc(C(C)(C)C)n1 [Example 153, 5-(tert-butyl)-N—((R)-1-(4-(5-(6-(1-(4-((S)-2,6-dioxopiperidin-3-yl)phenethyl)piperidin-4-yl)pyridin-3-yl)-1H-pyrazolo[3,4-b]pyridin-3-yl)-2-methylphenyl)ethyl)-1,2,4-oxadiazole-3-carboxamide] | 11.8 nM
4 | Cc1cc(-c2n[nH]c3ncc(-c4ccc(N5CCN(CCc6ccc(C7CCC(=O)NC7=O)cc6)CC5)cc4)cc23)ccc1[C@@H](C)NC(=O)c1noc(C(C)(C)C)n1 (stereo partly drawn) [Example 35, 5-(tert-butyl)-N-((1R)-1-(4-(5-(4-(4-(4-(2,6-dioxopiperidin-3-yl)phenethyl)piperazin-1-yl)phenyl)-1H-pyrazolo[3,4-b]pyridin-3-yl)-2-methylphenyl)ethyl)-1,2,4-oxadiazole-3-carboxamide] | 1.9 nM
5 | CC(C)(C)c1noc(C(=O)NCc2ccc(-c3n[nH]c4ncc(-c5ccc(C6CCN(CCc7ccc(C8CCC(=O)NC8=O)cc7)CC6)cc5)cc34)cc2F)n1 (stereo not drawn) [Example 14, 3-(tert-butyl)-N-(4-(5-(4-(1-(4-(2,6-dioxopiperidin-3-yl)phenethyl)piperidin-4-yl)phenyl)-1H-pyrazolo[3,4-b]pyridin-3-yl)-2-fluorobenzyl)-1,2,4-oxadiazole-5-carboxamide] | 4.74 nM
6 | Cc1cc(-c2n[nH]c3ncc(-c4ccc(N5CCN(CCc6ccc(N7CCC(=O)NC7=O)c(C)c6)CC5)cc4)cc23)ccc1[C@@H](C)NC(=O)c1noc(C(C)(C)C)n1 [Example 119, (R)-5-(tert-butyl)-N-(1-(4-(5-(4-(4-(4-(2,4-dioxotetrahydropyrimidin-1(2H)-yl)-3-methylphenethyl)piperazin-1-yl)phenyl)-1H-pyrazolo[3,4-b]pyridin-3-yl)-2-methylphenyl)ethyl)-1,2,4-oxadiazole-3-carboxamide] | 2.12 nM
7 | Cc1cc(-c2n[nH]c3ncc(-c4ccc(N5CCN(CC6CCN(c7ccc(N8CCC(=O)NC8=O)cc7)CC6)CC5)cc4)cc23)c(F)cc1[C@@H](C)NC(=O)c1noc(C(C)(C)C)n1 [Example 44, (R)-5-(tert-butyl)-N-(1-(4-(5-(4-(4-((1-(4-(2,4-dioxotetrahydropyrimidin-1(2H)-yl)phenyl)piperidin-4-yl)methyl)piperazin-1-yl)phenyl)-1H-pyrazolo[3,4-b]pyridin-3-yl)-5-fluoro-2-methylphenyl)ethyl)-1,2,4-oxadiazole-3-carboxamide] | 6.02 nM
8 | Cc1cc(CCN2CCN(c3ccc(-c4cnc5[nH]nc(-c6ccc([C@@H](C)NC(=O)c7noc(C(C)(C)C)n7)c(CO)c6)c5c4)cc3)CC2)ncc1C1CCC(=O)NC1=O (stereo partly drawn) [Example 149, 5-(tert-butyl)-N-((1R)-1-(4-(5-(4-(4-(2-(5-(2,6-dioxopiperidin-3-yl)-4-methylpyridin-2-yl)ethyl)piperazin-1-yl)phenyl)-1H-pyrazolo[3,4-b]pyridin-3-yl)-2-(hydroxymethyl)phenyl)ethyl)-1,2,4-oxadiazole-3-carboxamide] | 1.6 nM

The next lines start with the values.

Row | DC50 | Compound
9 | 54 nM | Cc1cc(-c2n[nH]c3ncc(-c4ccc(N5CCN(CCc6ccc7c(c6)C[C@@]6(CC(=O)NC6=O)C7)CC5)cc4)cc23)ccc1[C@@H](C)NC(=O)c1nc(C(C)(C)C)no1 [Example 207, 3-(tert-butyl)-N—((R)-1-(4-(5-(4-(4-(2-((R)-2′,5′-dioxo-1,3-dihydrospiro[indene-2,3′-pyrrolidin]-5-yl)ethyl)piperazin-1-yl)phenyl)-1H-pyrazolo[3,4-b]pyridin-3-yl)-2-methylphenyl)ethyl)-1,2,4-oxadiazole-5-carboxamide]
10 | 14 nM | Cc1cc(-c2n[nH]c3ncc(-c4ccc(N5CCN(CC6CCN(c7ccc(N8CCC(=O)NC8=O)cc7)CC6)CC5)cc4)cc23)ccc1[C@@H](C)NC(=O)c1noc(C2(CO)CC2)n1 [Example 184, (R)—N-(1-(4-(5-(4-(4-((1-(4-(2,4-dioxotetrahydropyrimidin-1(2H)-yl)phenyl)piperidin-4-yl)methyl)piperazin-1-yl)phenyl)-1H-pyrazolo[3,4-b]pyridin-3-yl)-2-methylphenyl)ethyl)-5-(1-(hydroxymethyl)cyclopropyl)-1,2,4-oxadiazole-3-carboxamide]
11 | 13.5 nM | Cc1cc(-c2n[nH]c3ncc(-c4ccc(C5(C)CCN(C6CC(c7ccc(C8CCC(=O)NC8=O)cc7)C6)CC5)cc4)cc23)ccc1[C@@H](C)NC(=O)c1noc(C(C)(C)C)n1 (stereo partly drawn) [Example 211, 5-(tert-butyl)-N-((1R)-1-(4-(5-(4-(1-(3-(4-(2,6-dioxopiperidin-3-yl)phenyl)cyclobutyl)-4-methylpiperidin-4-yl)phenyl)-1H-pyrazolo[3,4-b]pyridin-3-yl)-2-methylphenyl)ethyl)-1,2,4-oxadiazole-3-carboxamide]
12 | 15.1 nM | COc1cc(N2CCC(CCN3CCN(c4ccc(-c5cnc6[nH]nc(-c7ccc([C@@H](C)NC(=O)c8noc(C(C)(C)C)n8)c(C)c7)c6c5)cc4)CC3)CC2)ccc1C1CCC(=O)NC1=O (stereo partly drawn) [Example 169, 5-(tert-butyl)-N-((1R)-1-(4-(5-(4-(4-(2-(1-(4-(2,6-dioxopiperidin-3-yl)-3-methoxyphenyl)piperidin-4-yl)ethyl)piperazin-1-yl)phenyl)-1H-pyrazolo[3,4-b]pyridin-3-yl)-2-methylphenyl)ethyl)-1,2,4-oxadiazole-3-carboxamide]
13 | 9.04 nM | Cc1cc(-c2n[nH]c3ncc(-c4ccc(N5CCCN(CC6CCN(c7ccc(N8CCC(=O)NC8=O)cc7)CC6)CC5)cc4)cc23)ccc1[C@@H](C)NC(=O)c1nc(C(C)(C)C)no1 [Example 202, (R)-3-(tert-butyl)-N-(1-(4-(5-(4-(4-((1-(4-(2,4-dioxotetrahydropyrimidin-1(2H)-yl)phenyl)piperidin-4-yl)methyl)-1,4-diazepan-1-yl)phenyl)-1H-pyrazolo[3,4-b]pyridin-3-yl)-2-methylphenyl)ethyl)-1,2,4-oxadiazole-5-carboxamide]

same assay, conditions: TMD8, maximum percentage of inhibition (degradation)

Row | Dmax | Compound
14 | 93% | Cc1cc(-c2n[nH]c3ncc(-c4ccc(N5CCN(CCc6ccc(C7CCC(=O)NC7=O)cc6)CC5)cc4)cc23)ccc1[C@@H](C)NC(=O)c1noc(C(C)(C)C)n1 (stereo partly drawn) [Example 35, 5-(tert-butyl)-N-((1R)-1-(4-(5-(4-(4-(4-(2,6-dioxopiperidin-3-yl)phenethyl)piperazin-1-yl)phenyl)-1H-pyrazolo[3,4-b]pyridin-3-yl)-2-methylphenyl)ethyl)-1,2,4-oxadiazole-3-carboxamide]
15 | 95.2% | CC(C)(C)c1noc(C(=O)NCc2ccc(-c3n[nH]c4ncc(-c5ccc(C6CCN(CCc7ccc(C8CCC(=O)NC8=O)cc7)CC6)cc5)cc34)cc2F)n1 (stereo not drawn) [Example 14, 3-(tert-butyl)-N-(4-(5-(4-(1-(4-(2,6-dioxopiperidin-3-yl)phenethyl)piperidin-4-yl)phenyl)-1H-pyrazolo[3,4-b]pyridin-3-yl)-2-fluorobenzyl)-1,2,4-oxadiazole-5-carboxamide]
